“Also recorded” adds a separate entry of the source.
How the values were obtained:
[1] = tested on: senescent cells in osteoarthritic joint of mice after ACL surgery; assay: Osteoarthritis mouse model (ACL surgery), intra-articular treatment; format: in vivo; details: for histopathology: destruction of the proteoglycan layer: Nutlin-3A in C57BL/6J, GCV 2.5 μg intra-articular in 3MR mice
Procedure: Parallel studies were performed. One study investigated the effect of eliminating senescent cells with ganciclovir (GCV) in 3MR mice. Mice underwent surgery to cut the anterior cruciate ligament of one rear limb to induce osteoarthritis in the joint of that limb. During week 2 post-surgery, 3MR mice received 2.5 μg GCV to the operated knee by intra-articular injection, qd for 5 days, with a 2nd treatment (2.5 μg GCV qd for 5 days) during week 4 post-surgery. At the end of 4 weeks post-surgery, operated joints of the mice were monitored for presence of senescent cells, assessed for function, monitored for markers of inflammation, and underwent histological assessment.
In a parallel study, C57BL/6J mice underwent surgery to cut the anterior cruciate ligament of one rear limb to induce osteoarthritis in the joint of that limb. During week 3 and week 4 post-surgery, the mice were treated with 5.8 μg of Nutlin-3A (n=7) per operated knee by intra-articular injection, qod for 2 weeks. At the end of 4 weeks post-surgery, joints of the mice were monitored for presence of senescent cells, assessed for function, monitored for markers of inflammation, and underwent histological assessment.
Two control groups of mice were included in the studies performed: one group comprising C57BL/6J or 3MR mice that had undergone a sham surgery (n=3) (i.e., surgical procedures followed except for cutting the ACL) and intra-articular injections of vehicle parallel to the GCV-treated group; and one group comprising C57BL/6J or 3MR mice that had undergone an ACL surgery and received intra-articular injections of vehicle (n=5) parallel to the GCV-treated group.
RNA from the operated joints of mice from the Nutlin-3A treated mice was analyzed for expression of SASP factors (mmp3, IL-6) and senescence markers (p16). qRT-PCR was performed to detect mRNA levels. […] RNA from the operated joints of mice was also analyzed for expression of type 2 collagen and compared with expression of actin as a control.
Function of the limbs was assessed 4 weeks post-surgery by a weight bearing test to determine which leg the mice favored (FIG. 39). The mice were allowed to acclimate to the chamber on at least 3 occasions prior to taking measurements. Mice were maneuvered inside the chamber to stand with 1 hind paw on each scale. The weight that was placed on each hind limb was measured over a 3-second period. At least 3 separate measurements were made for each animal at each time point. The results were expressed as the percentage of the weight placed on the operated limb versus the contralateral unoperated limb.
The function of the limbs was also assessed at 4 weeks post-surgery by hotplate analysis to show sensitivity and reaction to pain stimulus. In brief, a mouse was placed on a hotplate at 55° C. When placed on the hot surface of the plate, mice will lift their paws and lick them (paw-lick response) due to attainment of pain threshold. The latency period for the hind limb response (paw-lick response) is recorded as response time.
Histopathology of osteoarthritis induced by ACL surgery illustrated that the proteoglycan layer was destroyed.

[2] = tested on: 3MR or INK-ATTAC mice exposed to cigarette smoke; assay: Cigarette smoke exposure model (COPD), oxygen saturation; format: in vivo, mouse; details: after 2 months of cigarette smoke exposure
Procedure: Six week-old 3MR (n=35) or INK-ATTAC (n=35) mice were chronically exposed to cigarette smoke generated from a Teague TE-10 system, an automatically-controlled cigarette smoking machine that produces a combination of side-stream and mainstream cigarette smoke in a chamber, which is transported to a collecting and mixing chamber where varying amounts of air is mixed with the smoke mixture. […] Mice received a total of 6 hours of cigarette smoke exposure per day, 5 days a week for 6 months. Each lighted cigarette (3R4F research cigarettes containing 10.9 mg of total particulate matter (TPM), 9.4 mg of tar, and 0.726 mg of nicotine, and 11.9 mg carbon monoxide per cigarette [University of Kentucky, Lexington, Ky.]) was puffed for 2 seconds and once every minute for a total of 8 puffs, with the flow rate of 1.05 L/min, to provide a standard puff of 35 cm^3. The smoke machine was adjusted to produce a mixture of side stream smoke (89%) and mainstream smoke (11%) by smoldering 2 cigarettes at one time. The smoke chamber atmosphere was monitored for total suspended particulates (80-120 mg/m^3) and carbon monoxide (350 ppm). Beginning at day 7, (10) INK-ATTAC and (10) 3MR mice were treated with AP20187 (3×per week) or gancyclovir (5 consecutive days of treatment followed by 16 days off drug, repeated until the end of the experiment), respectively. An equal number of mice received the corresponding vehicle. The remaining 30 mice (15 INK-ATTAC and 15 3MR) were evenly split with 5 of each genetically modified strain placed into three different treatment groups. One group (n=10) received Nutlin-3A (25 mg/kg dissolved in 10% DMSO/3% Tween-20 in PBS, treated 14 days consecutively followed by 14 days off drug, repeated until the end of the experiment). One group (n=10) received ABT-263 (Navitoclax) (100 mg/kg dissolved in 15% DMSO/5% Tween-20, treated 7 days consecutively followed by 14 days off drug, repeated until the end of the experiment), and the last group (n=10) received only the vehicle used for ABT-263 (15% DMSO/5% Tween-20), following the same treatment regimen as ABT-263.
After two months of cigarette smoke exposure, lung function was assessed by monitoring oxygen saturation using the MouseSTAT PhysioSuite pulse oximeter (Kent Scientific). Animals were anesthetized with isoflurane (1.5%) and the toe clip was applied. Mice were monitored for 30 seconds and the average peripheral capillary oxygen saturation (SpO2) measurement over this duration was calculated.

Structure (SMILES)	senescent cells in the joint (p16, IL-6, MMP13 mRNA) ([1]; 5.8 μg per operated knee intra-articular qod for 2 weeks, 4 weeks post-surgery)	weight bearing test (favoring the unoperated hind limb) ([1]; 4 weeks post-surgery)	hotplate paw-lick response time ([1]; 55° C., 4 weeks post-surgery)	histopathology: destruction of the proteoglycan layer [1]	type 2 collagen expression in operated joints ([1]; relative to actin, versus untreated OA surgery mice)	SpO2 levels versus untreated controls [2]
COc1ccc(C2=N[C@@H](c3ccc(Cl)cc3)[C@@H](c3ccc(Cl)cc3)N2C(=O)N2CCNC(=O)C2)c(OC(C)C)c1 [Nutlin-3a]	clears senescent cells from the joint	abrogates this effect	decreases the response time in a significant manner; also recorded: reduces response time	completely abrogated this effect	drives ab initio collagen production	statistically significant increases
Nc1nc(O)c2ncn(COC(CO)CO)c2n1 [ganciclovir]				same impact on pathophysiology of osteoarthritis as Nutlin-3A		statistically significant increases

Reference: US20190022225A1, “PROTOCOL FOR INCREASING LIFE EXPECTANCY IN A TEST SUBJECT” (Mayo Foundation for Medical Education and Research, priority 2015, published 2019)
